One may read the pIC50 as the IC50 on a negative log10 scale, so that one unit is a factor of ten.

pIC50: −log10 of the molar value.

The subject of one assay is COVID-19. To be noted: cited from earlier work.
A further assay deals with SARS-CoV-2 M^pro (Severe acute respiratory syndrome coronavirus 2, UniProt P0DTD1). Put plainly: FRET-based kinetic assay of M^pro inhibition. Format: biochemical.

Consider `Cc1cccc(C)c1OCC(=O)N[C@@H](Cc1ccccc1)[C@@H](O)C[C@H](Cc1ccccc1)NC(=O)[C@H](C(C)C)N1CCCNC1=O` [lopinavir], for which the “benefits against COVID-19 in clinical trials” value with COVID-19 (clinical trials, no reference given) is “neither lopinavir nor the lopinavir/ritonavir combination has thus far shown any significant benefits”.

On SARS-CoV-2 M^pro, `Cc1c(O)cccc1C(=O)N[C@@H](CSc1ccccc1)[C@H](O)CN1C[C@H]2CCCC[C@H]2C[C@H]1C(=O)NC(C)(C)C` [nelfinavir] gave a pIC50 of 3.22 to 3.60.

For the compound `CCC(CC)COC(=O)[C@H](C)N[P@](=O)(OC[C@H]1O[C@@](C#N)(c2ccc3c(N)ncnn23)[C@H](O)[C@@H]1O)Oc1ccccc1` [remdesivir], the clinical benefit result in the assay on COVID-19 (adult patients hospitalized for severe COVID-19) was “no statistically significant clinical benefits”. Moreover, the “time to clinical improvement” value with COVID-19 (in comparison to the placebo-control group) is recorded as “faster time to clinical improvement”.
